Source: ChEMBL document CHEMBL5150017, “Mechanism of Action and Structure-Activity Relationship of α-Conotoxin Mr1.1 at the Human α9α10 Nicotinic Acetylcholine Receptor” (J Med Chem, 2022)
Activity calls are given as the source filed them. The rule behind the calls is not given here. Positions of bridges follow the written chain, without caps; N, C: chain ends. Residues, ends and D or L forms follow the SMILES beside them.

What was measured:
[1] = biological target: T1, Neuronal acetylcholine receptor; alpha9/alpha10 (Homo sapiens) (UniProt Q9UGM1+Q9GZZ6); experiment: Antagonist activity at human alpha9alpha10 nAChR expressed in Xenopus laevis oocytes assessed as inhibition of ACh-induced current amplitude at -80 mV holding potential at 10 uM by two-electrode voltage clamp method; format: cell-based; settings: Oocyte
[2] = biological target: T1, Neuronal acetylcholine receptor; alpha9/alpha10 (Homo sapiens); experiment: Antagonist activity at human alpha9alpha10 nAChR expressed in Xenopus laevis oocytes assessed as inhibition of ACh-induced current amplitude at -80 mV holding potential at 1 uM by two-electrode voltage clamp method; format: cell-based; settings: Oocyte

`CC[C@H](C)[C@@H]1NC(=O)[C@H](CC(=O)O)NC(=O)[C@@H]2CCCN2C(=O)[C@H](CC(N)=O)NC(=O)[C@H](CC(N)=O)NC(=O)[C@H](C(C)C)NC(=O)[C@H](CO)NC(=O)[C@@H]2CSSC[C@H](NC(=O)CN)C(=O)N[C@@H](CSSC[C@@H](C(N)=O)NC1=O)C(=O)N[C@@H](C)C(=O)N[C@@H](Cc1cnc[nH]1)C(=O)N1CCC[C@H]1C(=O)N[C@@H](C)C(=O)N2` (H-GCCAHPACSVNNPDIC-NH2; disulfide 2-8, 3-16) was tested, and the inhibition ([1]; filed as antagonist) was “Active”.

Work on `CC[C@H](C)[C@@H]1NC(=O)[C@H](CC(=O)O)NC(=O)[C@@H]2CCCN2C(=O)[C@H](CC(N)=O)NC(=O)[C@H](CC(N)=O)NC(=O)[C@H](C(C)C)NC(=O)[C@H](CO)NC(=O)[C@@H]2CSSC[C@H](NC(=O)CN)C(=O)N[C@@H](CSSC[C@@H](C(N)=O)NC1=O)C(=O)N[C@@H](CO)C(=O)N[C@@H](C)C(=O)N1CCC[C@H]1C(=O)N[C@@H](C)C(=O)N2` (H-GCCSAPACSVNNPDIC-NH2; disulfide 2-8, 3-16) yielded an inhibition [1] of 20%.

With `CC[C@H](C)[C@@H]1NC(=O)[C@H](CC(=O)O)NC(=O)[C@@H]2CCCN2C(=O)[C@H](CC(N)=O)NC(=O)[C@H](CC(N)=O)NC(=O)[C@H](C(C)C)NC(=O)[C@H](C)NC(=O)[C@@H]2CSSC[C@H](NC(=O)CN)C(=O)N[C@@H](CSSC[C@@H](C(N)=O)NC1=O)C(=O)N[C@@H](CO)C(=O)N[C@@H](Cc1cnc[nH]1)C(=O)N1CCC[C@H]1C(=O)N[C@@H](C)C(=O)N2` (H-GCCSHPACAVNNPDIC-NH2; disulfide 2-8, 3-16) the inhibition ([1]; filed as antagonist) was “Active”.

With `CC[C@H](C)[C@@H]1NC(=O)[C@H](CC(=O)O)NC(=O)[C@@H]2CCCN2C(=O)[C@H](Cc2cnc[nH]2)NC(=O)[C@H](CC(N)=O)NC(=O)[C@H](C(C)C)NC(=O)[C@H](CO)NC(=O)[C@@H]2CSSC[C@H](NC(=O)CN)C(=O)N[C@@H](CSSC[C@@H](C(N)=O)NC1=O)C(=O)N[C@@H](CO)C(=O)N[C@@H](Cc1cnc[nH]1)C(=O)N1CCC[C@H]1C(=O)N[C@@H](C)C(=O)N2` (H-GCCSHPACSVNHPDIC-NH2; disulfide 2-8, 3-16) the inhibition [2] was 20% and the inhibition ([2]; filed as antagonist) was 40%.
